The values below come from the Kinase Knowledgebase extract (Sharma et al. 2016).

As usually defined, the IC50 is the concentration at which inhibition is half-maximal.

One assay deals with MAPK14 (UniProt Q16539). Put plainly: Enzyme Assay.
A further assay deals with MAPK14 (human) (UniProt Q16539). Put plainly: Inhibition of LPS-Induced TNF-alpha Production in THP-1 Cells. Conditions: thp1.
Chain of MAPK14 (human) (Q16539 whole entry, looked up): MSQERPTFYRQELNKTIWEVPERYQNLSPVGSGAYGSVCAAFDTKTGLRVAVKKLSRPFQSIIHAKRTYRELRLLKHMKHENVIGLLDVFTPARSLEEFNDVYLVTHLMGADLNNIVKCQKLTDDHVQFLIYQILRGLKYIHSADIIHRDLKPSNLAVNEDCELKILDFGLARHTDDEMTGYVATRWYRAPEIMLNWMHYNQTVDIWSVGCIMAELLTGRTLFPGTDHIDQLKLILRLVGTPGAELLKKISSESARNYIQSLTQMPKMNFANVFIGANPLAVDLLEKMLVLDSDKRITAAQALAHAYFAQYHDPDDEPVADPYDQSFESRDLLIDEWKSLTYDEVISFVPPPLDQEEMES

Chain of MAPK14 (Q16539 whole entry, looked up): as above

Regarding `O=C(Nc1ccc(Cl)c(COc2cnccn2)c1)c1cc(F)cc(N2CCOCC2)c1`, the IC50 is < 2 µM against MAPK14 and 0.21 µM against MAPK14 (human).
The matching figures for `O=C(Nc1ccc(Cl)c(COc2ccc(NCCO)nc2)c1)c1cc(F)cc(N2CCOCC2)c1`: < 2 µM and 0.97 µM.
Turning to `CC(CO)(CO)NC(=O)c1cnc(OCc2c(Cl)cccc2Cl)cn1`, the IC50 against MAPK14 is < 2 µM.
Still for that read-out and setting: to `O=C(Nc1ccc(Cl)c(COc2cnccn2)c1)c1ccccc1` belongs < 20 µM; to `CC(C)(C)c1cc(C(=O)Nc2ccc(F)c(COc3cnccn3)c2)n(Cc2ccc(F)cc2)n1`, < 20 µM.
Still for that read-out and setting: to `Nc1ncccc1OCc1cccc(OC(F)(F)F)c1` belongs < 10000 µM; to `O=C(Nc1ccc(F)c(COc2cnccn2)c1)Nc1nnc(CC2CC2)s1`, < 2 µM.
On the same count and under the same terms, then `O=C(CC1CCOCC1)Nc1cnc(OCc2c(Cl)cccc2Cl)cn1`, with < 200 µM; and `O=C(Nc1ccc(F)c(COc2cccnc2)c1)c1ccccc1`, with < 200 µM.
For the compound `Nc1ncccc1OCc1csc2ccccc12`, the IC50 against MAPK14 was < 1000 µM.
Still for that read-out and setting: to `CC(C)(C)c1cc(NC(=O)Nc2ccc(F)c(COc3cnccn3)c2)n(-c2ccc(Cl)cc2)n1` belongs < 2 µM; to `O=C(Nc1cccc(COc2cccnc2)c1)c1cc(F)cc(N2CCOCC2)c1`, < 20 µM.
Same read-out and setting: then `Nc1ccc(Cl)c(COc2cccnc2)c1`, with < 1000 µM; and `CC(C)(Cc1ccncc1)NC(=O)c1cnc(OCc2c(Cl)cccc2Cl)cn1`, with < 20 µM.
Take `CC(Nc1cnc(OCc2c(Cl)cccc2Cl)cn1)c1ccccc1` (centres undefined): at MAPK14, the IC50 is < 20 µM.
On the same count and under the same terms, then `NS(=O)(=O)CCNC(=O)c1cnc(OCc2c(Cl)cccc2Cl)cn1`, with < 1000 µM.
Take `CC(C)(C)c1ccc(C(=O)Nc2ccc(F)c(COc3cnccn3)c2)cc1`: the IC50 at MAPK14 is < 20 µM.
Still for that read-out and setting: then `Clc1cccc(Cl)c1COc1ccc(NCc2ccccc2)nc1`, with < 200 µM; and `O=C1c2ccccc2CN1c1ccc(F)c(COc2cccnc2)c1`, with < 1000 µM.
On the same count and under the same terms, to `CC(C)(C)c1cc(C(=O)Nc2ccc(F)c(COc3cnccn3)c2)cc(C(C)(C)C)c1` belongs < 2 µM; to `O=C(Nc1ccc(F)c(COc2cnccn2)c1)Nc1ncc(-c2ccc(Cl)cc2)s1`, < 200 µM.
On the same count and under the same terms, then `O=C(Nc1ccc(F)c(COc2cnccn2)c1)Nc1nnc(C2CCCO2)s1` (centres undefined), with < 2 µM; and `CC(C)(C)c1cc(C(=O)Nc2ccc(F)c(COc3cnccn3)c2)n(Cc2ccccc2)n1`, with < 20 µM.
In the case of `Nc1ncccc1OCc1ccccc1C(F)(F)F`, the IC50 against MAPK14 was < 100 µM.
Same read-out and setting: to `Cc1cccc(COc2cccnc2N)c1F` belongs < 1000 µM; to `O=S(=O)(c1ccccc1)N(c1ccc(Cl)c(COc2cccnc2)c1)S(=O)(=O)c1ccccc1`, < 1000 µM; to `O=C(Nc1ccc(F)c(COc2cccnc2)c1)c1cncc(N2CCOCC2)n1`, < 20 µM.
The same measure, in the same setting: then `CNc1cnc(OCc2c(Cl)cccc2Cl)cn1`, with < 200 µM; and `Clc1cccc(Cl)c1COc1ccc(N2CCOCC2)nc1`, with < 1000 µM; and `Nc1ncccc1OCc1ccccc1CS(=O)(=O)c1ccccc1`, with < 1000 µM.
On the same count and under the same terms, to `COc1cc(C(=O)Nc2ccc(F)c(COc3cnccn3)c2)nc(Cl)n1` belongs < 1000 µM.
On to `CC(C)c1nnc(NC(=O)Nc2ccc(F)c(COc3cnccn3)c2)s1`, for which the IC50 against MAPK14 was < 20 µM.
Consider `CC(C)(C)c1cc(NC(=O)Oc2cccc(COc3cnccn3)c2)n(-c2ccccc2)n1`, for which, on MAPK14, the IC50 is < 200 µM.
Same read-out and setting: then `CN1CCCC(CNC(=O)c2cnc(OCc3c(Cl)cccc3Cl)cn2)C1` (centres undefined), with < 1000 µM; and `Nc1nccnc1OCc1cccc2ccccc12`, with < 1000 µM; and `CC(C)(C)c1cc(NC(=O)Nc2ccc(F)c(COc3cnccn3)c2)n(-c2ccc(S(C)(=O)=O)cc2)n1`, with < 2 µM.
Same read-out and setting: then `CSc1nnc(NC(=O)Nc2ccc(F)c(COc3cnccn3)c2)s1`, with < 200 µM.
For `O=C(CN1CCOCC1)Nc1cnc(OCc2c(Cl)cccc2Cl)cn1`, on MAPK14, the IC50 was < 200 µM.
Same read-out and setting: then `O=C(Nc1ccc(Cl)c(COc2cccnc2)c1)Oc1ccccc1`, with < 20 µM; and `O=C(Nc1ccc(F)c(COc2cnccn2)c1)Nc1nnc(Cc2ccccc2)s1`, with < 2 µM.
Still for that read-out and setting: then `Nc1cccc(COc2cncc(Cl)n2)c1`, with < 1000 µM.
Same read-out and setting: then `CC(C)(C)OC(=O)Nc1ccc(Cl)c(COc2cnccn2)c1`, with < 1000 µM.
On to `C=CS(=O)(=O)Nc1cnc(OCc2c(Cl)cccc2Cl)cn1`, for which the IC50 on MAPK14 is < 200 µM.
The same measure, in the same setting: then `O=C(Nc1ccc(F)c(COc2cnccn2)c1)c1ccc(=O)n(Cc2ccccc2)c1`, with < 20 µM; and `Nc1ncccc1OCc1ccc(Cl)cc1Cl`, with < 1000 µM; and `CN1CCN(CC(=O)Nc2cnc(OCc3c(Cl)cccc3Cl)cn2)CC1`, with < 20 µM.
For `CC(C)(C)c1ccccc1NC(=O)Nc1ccc(F)c(COc2cccnc2)c1`, at MAPK14, the IC50 is < 20 µM.
Still for that read-out and setting: to `Nc1ncccc1OCc1cccc(C(=O)NCc2cccc3ccccc23)c1` belongs < 1000 µM.
Turning to `O=C(Nc1ccccc1)C(=O)Nc1ccc(Cl)c(COc2cccnc2)c1`, the IC50 against MAPK14 is < 2 µM.
Same read-out and setting: then `COc1ccccc1COc1cccnc1N`, with < 1000 µM; and `O=C(Nc1ccc(F)c(COc2cnccn2)c1)Nc1cc(-c2ccc(Cl)cc2)nn1-c1ccc(F)cc1`, with < 2 µM; and `O=C(Nc1ccc(Cl)c(COc2cccnc2)c1)c1ccccc1`, with < 20 µM.
On the same count and under the same terms, to `Nc1ncccc1OCc1ccc(F)c(F)c1` belongs < 1000 µM.
For the compound `CC(C)(C)c1cc(NC(=O)Nc2ccc(F)c(COc3cnccn3)c2)n(-c2ccc(F)cc2F)n1`, on MAPK14, the IC50 was < 2 µM.
Turning to `Nc1ccncc1OCc1cccc2ccccc12`, the half-inhibitory concentration (IC50) at MAPK14 was < 1000 µM.
Same read-out and setting: then `CC(C)(C)c1ccc2[nH]cc(CC(=O)Nc3ccc(F)c(COc4cnccn4)c3)c2c1`, with < 200 µM.
On the same count and under the same terms, then `CC(C)(C)c1ccc(-n2nc(C3CC3)cc2NC(=O)Nc2ccc(F)c(COc3cnccn3)c2)cc1`, with < 200 µM.
On the same count and under the same terms, then `O=C(Nc1ccc(Cl)c(COc2cccnc2)c1)c1cccc(Cl)c1`, with < 20 µM; and `Nc1ncccc1OCc1cccc(Cl)c1`, with < 1000 µM.
For the compound `Cc1cc(C)cc(COc2cccnc2N)c1`, the IC50 against MAPK14 is < 200 µM.
With `Nc1ncccc1OCc1ccccc1-c1ccccc1`, the IC50 at MAPK14 was < 10 µM.
Same read-out and setting: then `O=C(Nc1ccc(Cl)c(COc2cccnc2)c1)c1ccncc1`, with < 200 µM; and `CCNC(=O)c1cnc(OCc2c(Cl)cccc2Cl)cn1`, with < 1000 µM.
For `CC(C)(C)n1nc(-c2ccccc2)cc1NC(=O)Nc1ccc(F)c(COc2cnccn2)c1`, on MAPK14, the IC50 was < 20 µM.
On the same count and under the same terms, to `O=C(Nc1ccc(F)c(COc2cnccn2)c1)c1ccc2ccccc2c1` belongs < 20 µM; to `CN1CCC(CC(=O)Nc2cnc(OCc3c(Cl)cccc3Cl)cn2)CC1`, < 200 µM; to `Clc1cnc(OCc2c(Cl)cccc2Cl)cn1`, < 1000 µM.
Same read-out and setting: to `O=C(Cn1ccnc1)Nc1cnc(OCc2c(Cl)cccc2Cl)cn1` belongs < 20 µM; to `O=C(Nc1ccc(F)c(COc2cnccn2)c1)Nc1n[nH]cc1-c1ccccc1`, < 20 µM; to `O=C(Nc1cnc(OCc2c(Cl)cccc2Cl)cn1)N1CCOCC1`, < 2 µM.
Same read-out and setting: to `CC(C)(C)c1cc(NC(=O)Nc2ccc(F)c(COc3cnccn3)c2)n(-c2ccccc2)n1` belongs < 2 µM; to `Cc1ccc(-n2nc(C(C)(C)C)cc2NC(=O)Nc2ccc(F)c(COc3cnccn3)c2)cc1`, < 2 µM.
In the case of `Nc1ccc(Cl)c(COc2cnccn2)c1`, on MAPK14, the IC50 is < 1000 µM.
For `c1ccc(CNc2cccc(COc3cnccn3)c2)cc1`, the IC50 at MAPK14 was < 1000 µM.
Take `CC(C)(C)c1cccc(C(=O)Nc2ccc(Cl)c(COc3cccnc3)c2)c1`: the IC50 at MAPK14 is < 2 µM.
On to `O=C(Nc1ccc(F)c(COc2cccnc2)c1)c1cc(F)cc(N2CCOCC2)c1`, for which the IC50 against MAPK14 was < 2 µM.
Same read-out and setting: to `Clc1cccc(Cl)c1COc1cnc(NCc2ccccc2)cn1` belongs < 20 µM; to `Clc1cccc(Cl)c1COc1cnc(NC2CCOCC2)cn1`, < 200 µM.
Same read-out and setting: then `OCCNc1cnc(OCc2c(Cl)cccc2Cl)cn1`, with < 200 µM; and `O=C(Nc1ccc(F)c(COc2cnccn2)c1)Nc1nnc(-c2ccccc2)s1`, with < 200 µM; and `Nc1ncccc1OCc1cc2c(cc1Cl)OCO2`, with < 1000 µM.
On the same count and under the same terms, to `CC(C)(C)c1cc(NC(=O)Nc2ccc(Cl)c(COc3cccnc3)c2)n(-c2ccccc2)n1` belongs < 2 µM.
